Earlier results in patent publication US10281459B2, “Protein biosensors, cross reactive sensor arrays and methods of use thereof” (YEDA RESEARCH AND DEVELOPMENT CO. LTD., priority 2012, dated 2019).

Legend:
GSTs = conditions: literature
MMP isoforms = conditions: broad-spectrum inhibitor of MMP isoforms; literature

| Compound | reported values for the inhibition of GSTs (GSTs) | Ki values (MMP isoforms) |
| --- | --- | --- |
| C=C(CC)C(=O)c1ccc(OCC(=O)O)c(Cl)c1Cl [EA, ethacrynic acid] | low micromolar range | – |
| CNC(=O)[C@@H](NC(=O)[C@H](CC(C)C)[C@H](O)C(=O)NO)C(C)(C)C [Marimastat, marimastat] | – | low nanomolar range |
